The source of these data is patent US12173020B2, “New-type oxazolidinone compounds and preparation method therefor” (priority 2019, dated 2024).

The test system of assay [1] is methicillin-resistant Staphylococcus aureus (MRSA). In words: agar dilution method, inhibitory effect on MRSA. The assay is classed as cell-based. The conditions noted are these: for MIC50: Staphylococcus aureus, read-out: Minimum inhibitory concentration (MIC50, μg/ml) MRSA. The source says: (§1) In order to determine the antibacterial activity of these new oxazolidinone-based compounds, an agar dilution method was used to test the inhibitory effect on methicillin-resistant Staphylococcus aureus (MRSA) and vancomycin-resistant Enterococcus (VRE). The bacteria inhibition effect was expressed as minimum inhibitory concentration (MIC50, μg/ml) The test results are shown in the following table.
For orientation: In agar dilution the substance is mixed into plates at graded concentrations.

The subject of assay [2] is vancomycin-resistant Enterococcus (VRE). Nature of the assay: agar dilution method, inhibitory effect on VRE. The conditions noted are these: for MIC50: Enterococcus, read-out: Minimum inhibitory concentration (MIC50, μg/ml) VRE. The assay is classed as cell-based.
Source text: as §1

Molecules are shown by their SMILES.

For the compound `C=Cn1nnc(-c2ccc(-c3ccc(N4C[C@H](C(C)O)OC4=O)cc3F)cn2)n1.O=P(O)(O)O` (stereo partly drawn) [compound 121, (R)-3-(3-fluoro-4-(6-(2-vinyl-2H-tetrazol-5-yl)pyridin-3-yl)phenyl)-5-(1-hydroxyethyl) oxazolidin-2-one phosphate], the MIC50 in assay [1] and in assay [2] was 1.1 µg/mL each time.
Consider `C=Cn1nnc(-c2ccc(-c3ccc(N4C[C@@H](C(C)O)OC4=O)cc3F)cn2)n1.O=P(O)(O)O` (stereo partly drawn) [compound 122, (S)-3-(3-fluoro-4-(6-(2-vinyl-2H-tetrazol-5-yl)pyridin-3-yl)phenyl)-5-(1-hydroxyethyl) oxazolidin-2-one phosphate], for which the MIC50 stood at 1 µg/mL in assay [1] and 0.9 µg/mL in assay [2].
`C=Cn1nnc(-c2ccc(-c3ccc(N4C[C@H](C(O)CC)OC4=O)cc3F)cn2)n1.O=P(O)(O)O` (stereo partly drawn) [compound 123, (R)-3-(3-fluoro-4-(6-(2-vinyl-2H-tetrazol-5-yl)pyridin-3-yl)phenyl)-5-(1-hydroxypropyl) oxazolidin-2-one phosphate]: the MIC50 in assay [1] and in assay [2] was 0.3 µg/mL throughout.
For `C=Cn1nnc(-c2ccc(-c3ccc(N4C[C@@H](C(O)CC)OC4=O)cc3F)cn2)n1.O=P(O)(O)O` (stereo partly drawn) [compound 124, (S)-3-(3-fluoro-4-(6-(2-vinyl-2H-tetrazol-5-yl)pyridin-3-yl)phenyl)-5-(1-hydroxypropyl) oxazolidin-2-one phosphate], the MIC50 in assay [1] and in assay [2] was 0.2 µg/mL each time.
`C=Cn1nnc(-c2ccc(-c3ccc(N4C[C@H](C(O)F)OC4=O)cc3F)cn2)n1.O=P(O)(O)O` (stereo partly drawn) [compound 125, (R)-3-(3-fluoro-4-(6-(2-vinyl-2H-tetrazol-5-yl)pyridin-3-yl)phenyl)-5-(hydroxyfluoromethyl) oxazolidin-2-one phosphate]: the MIC50 in assay [1] and in assay [2] was 0.3 µg/mL in each case.
`C=Cn1nnc(-c2ccc(-c3ccc(N4C[C@@H](C(O)F)OC4=O)cc3F)cn2)n1.O=P(O)(O)O` (stereo partly drawn) [compound 126, (S)-3-(3-fluoro-4-(6-(2-vinyl-2H-tetrazol-5-yl)pyridin-3-yl)phenyl)-5-(hydroxyfluoromethyl) oxazolidin-2-one phosphate]: the MIC50 in assay [1] and in assay [2] was 0.7 µg/mL in each case.
As for `Cn1nnc(-c2ccc(-c3ccc(N4C[C@H](C(O)C(F)F)OC4=O)cc3F)cn2)n1.O=P(O)(O)O` (stereo partly drawn) [compound 127, (R)-3-(3-fluoro-4-(6-(2-methyl-2H-tetrazol-5-yl)pyridin-3-yl)phenyl)-5-(1-hydroxy-2-difluoroethyl) oxazolidin-2-one phosphate], the “Minimum inhibitory concentration (MIC50, μg/ml) MRSA” value in assay [1] was determined as 0.6 µg/mL. In assay [2], the “Minimum inhibitory concentration (MIC50, μg/ml) VRE” value was 0.7 µg/mL.
The like results for `Cn1nnc(-c2ccc(-c3ccc(N4C[C@@H](C(OP(=O)(O)O)C(F)F)OC4=O)cc3F)cn2)n1` (stereo partly drawn) [compound 128, (S)-3-(3-fluoro-4-(6-(2-methyl-2H-tetrazol-5-yl)pyridin-3-yl)phenyl)-5-(1-hydroxy-2-difluoroethyl) oxazolidin-2-one phosphate] were, in that order, 0.5 µg/mL and 0.5 µg/mL.
For `Cn1nnc(-c2ccc(-c3ccc(N4C[C@H](C(O)CF)OC4=O)cc3F)cn2)n1.O=P(O)(O)O` (stereo partly drawn) [compound 129, (R)-3-(3-fluoro-4-(6-(2-methyl-2H-tetrazol-5-yl)pyridin-3-yl)phenyl)-5-(1-hydroxy-2-fluoroethyl) oxazolidin-2-one phosphate], the MIC50 in assay [1] was 0.5 µg/mL; in assay [2] it was 0.3 µg/mL.
The like results for `Cn1nnc(-c2ccc(-c3ccc(N4C[C@@H](C(O)CF)OC4=O)cc3F)cn2)n1.O=P(O)(O)O` (stereo partly drawn) [compound 130, (S)-3-(3-fluoro-4-(6-(2-methyl-2H-tetrazol-5-yl)pyridin-3-yl)phenyl)-5-(1-hydroxy-2-fluoroethyl) oxazolidin-2-one phosphate] were, in that order, 0.2 µg/mL and 0.2 µg/mL.
Consider `Cn1nnc(-c2ccc(-c3ccc(N4C[C@H](C(O)C5CC5)OC4=O)cc3F)cn2)n1.O=P(O)(O)O` (stereo partly drawn) [compound 131, (R)-3-(3-fluoro-4-(6-(2-methyl-2H-tetrazol-5-yl)pyridin-3-yl)phenyl)-5-(1-hydroxy-1-cyclopropylmethyl) oxazolidin-2-one phosphate], for which the results for the MIC50 in assay [1] and in assay [2] were 0.2 µg/mL and 0.1 µg/mL, respectively.
In the case of `Cn1nnc(-c2ccc(-c3ccc(N4C[C@@H](C(O)C5CC5)OC4=O)cc3F)cn2)n1.O=P(O)(O)O` (stereo partly drawn) [compound 132, (S)-3-(3-fluoro-4-(6-(2-methyl-2H-tetrazol-5-yl)pyridin-3-yl)phenyl)-5-(1-hydroxy-1-cyclopropylmethyl) oxazolidin-2-one phosphate], the MIC50 in assay [1] and in assay [2] was 0.3 µg/mL in each case.
For `CCn1nnc(-c2ccc(-c3ccc(N4C[C@H](C(O)C(F)F)OC4=O)cc3F)cn2)n1.O=P(O)(O)O` (stereo partly drawn) [compound 133, (R)-3-(3-fluoro-4-(6-(2-ethyl-2H-tetrazol-5-yl)pyridin-3-yl)phenyl)-5-(1-hydroxy-2-difluoroethyl) oxazolidin-2-one phosphate], the “Minimum inhibitory concentration (MIC50, μg/ml) MRSA” value in assay [1] turned out to be 0.3 µg/mL. In addition, the “Minimum inhibitory concentration (MIC50, μg/ml) VRE” value in assay [2] turned out to be 0.2 µg/mL.
The like results for `CCn1nnc(-c2ccc(-c3ccc(N4C[C@@H](C(O)C(F)F)OC4=O)cc3F)cn2)n1.O=P(O)(O)O` (stereo partly drawn) [compound 134, (S)-3-(3-fluoro-4-(6-(2-ethyl-2H-tetrazol-5-yl)pyridin-3-yl)phenyl)-5-(1-hydroxy-2-difluoroethyl) oxazolidin-2-one phosphate] were, in that order, 0.5 µg/mL and 0.5 µg/mL.
`CCn1nnc(-c2ccc(-c3ccc(N4C[C@H](C(O)CF)OC4=O)cc3F)cn2)n1.O=P(O)(O)O` (stereo partly drawn) [compound 135, (R)-3-(3-fluoro-4-(6-(2-ethyl-2H-tetrazol-5-yl)pyridin-3-yl)phenyl)-5-(1-hydroxy-2-fluoroethyl) oxazolidin-2-one phosphate]: the MIC50 in assay [1] stood at 0.4 µg/mL; in assay [2] it was 0.3 µg/mL.
The like results for `CCn1nnc(-c2ccc(-c3ccc(N4C[C@@H](C(O)CF)OC4=O)cc3F)cn2)n1.O=P(O)(O)O` (stereo partly drawn) [compound 136, (S)-3-(3-fluoro-4-(6-(2-ethyl-2H-tetrazol-5-yl)pyridin-3-yl)phenyl)-5-(1-hydroxy-2-fluoroethyl) oxazolidin-2-one phosphate] were, in that order, 0.4 µg/mL and 0.2 µg/mL.
The matching figures for `CCn1nnc(-c2ccc(-c3ccc(N4C[C@H](C(O)C5CC5)OC4=O)cc3F)cn2)n1.O=P(O)(O)O` (stereo partly drawn) [compound 137, (R)-3-(3-fluoro-4-(6-(2-ethyl-2H-tetrazol-5-yl)pyridin-3-yl)phenyl)-5-(1-hydroxy-1-cyclopropylmethyl) oxazolidin-2-one phosphate]: 1.5 µg/mL and 1.1 µg/mL.
The like results for `CCn1nnc(-c2ccc(-c3ccc(N4C[C@@H](C(O)C5CC5)OC4=O)cc3F)cn2)n1.O=P(O)(O)O` (stereo partly drawn) [compound 138, (S)-3-(3-fluoro-4-(6-(2-ethyl-2H-tetrazol-5-yl)pyridin-3-yl)phenyl)-5-(1-hydroxy-1-cyclopropylmethyl) oxazolidin-2-one phosphate] were, in that order, 1 µg/mL and 1 µg/mL.
